Reference: US10792274B2, “Dehydroacetic acid (DHAA) and derivative for uses in treating cancer” (Emory University, priority 2016, dated 2020)
“Also recorded” adds a separate entry of the source.

Legend:
BRAF V600E-MEK1 binding = BRAF V600E-MEK1 binding (Homo sapiens, UniProt P15056, V600E); assay: cell-free in vitro coupled protein-protein binding and kinase assay; format: biochemical; conditions: substance alone
Description: (§1) Whether DHAA inhibits BRAF V600E directly was examined. […] In contrast, DHAA had no effect on BRAF WT-MEK1 binding or MEK1 phosphorylation in a control experiment using purified BRAF WT incubated with MEK1 in the presence of acetoacetate (FIG. 4I left panel). […] This is physiologically consistent with the acetoacetate levels determined as approximately 300 μM in stable HMGCL knockdown A375 and A2058 cells.

[1] = system: diverse BRAF V600E positive or negative human melanoma cells; assay: control treatments of melanoma cells; format: cell-based
Description: (§2) To exclude potential effects of the lithium ion, a series of experiments were performed using a control salt lithium chloride.
In addition, similar studies were performed to exclude possible effects from the potential degradation product of acetoacetate, acetone.

BRAF V600E [2] = biological target: T1, BRAF V600E (Homo sapiens, UniProt P15056, V600E); assay: thermal melt shift assay, purified recombinant protein; format: binding
T1 sequence (P15056 whole entry V600E): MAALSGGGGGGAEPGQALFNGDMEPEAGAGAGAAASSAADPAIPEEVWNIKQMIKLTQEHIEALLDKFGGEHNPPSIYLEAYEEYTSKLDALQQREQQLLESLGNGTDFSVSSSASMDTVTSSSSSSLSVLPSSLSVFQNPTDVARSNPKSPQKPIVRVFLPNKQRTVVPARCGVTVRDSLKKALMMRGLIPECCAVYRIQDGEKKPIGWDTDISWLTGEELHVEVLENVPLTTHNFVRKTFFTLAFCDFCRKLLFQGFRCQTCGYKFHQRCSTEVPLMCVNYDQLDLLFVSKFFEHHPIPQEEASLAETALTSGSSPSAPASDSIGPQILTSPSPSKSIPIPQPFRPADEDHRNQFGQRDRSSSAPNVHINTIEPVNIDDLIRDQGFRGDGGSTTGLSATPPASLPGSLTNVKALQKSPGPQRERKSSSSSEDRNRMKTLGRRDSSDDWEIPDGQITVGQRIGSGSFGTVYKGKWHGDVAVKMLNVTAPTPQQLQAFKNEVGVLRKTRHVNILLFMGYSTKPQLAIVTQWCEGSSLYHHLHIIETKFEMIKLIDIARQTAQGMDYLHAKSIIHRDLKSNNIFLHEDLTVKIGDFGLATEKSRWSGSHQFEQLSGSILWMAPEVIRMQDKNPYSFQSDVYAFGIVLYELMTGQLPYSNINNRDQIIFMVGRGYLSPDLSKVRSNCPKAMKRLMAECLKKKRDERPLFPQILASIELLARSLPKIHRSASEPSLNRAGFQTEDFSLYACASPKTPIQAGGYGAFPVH
Description: Arrows in the panel indicate melting temperatures at 0 μM (left) and 400 μM (right).
(§3) Whether functional inhibition of acetoacetate would attenuate BRAF V600E tumor growth was examined. Dehydroacetic acid (DHAA) (FIG. 4A) is an inhibitory homologue of acetoacetate.

BRAF V600D-MEK1 binding = BRAF V600D-MEK1 binding (Homo sapiens, UniProt P15056, V600D); assay: MEK1 binding to BRAF mutants; format: biochemical
Chain of BRAF V600D-MEK1 binding (P15056 whole entry V600D, the tested form may be a part): as the sequence (P15056 whole entry V600E) above, with E600D counted along it
Chain of BRAF V600D-MEK1 binding (Q02750 whole entry partner, the tested form may be a part): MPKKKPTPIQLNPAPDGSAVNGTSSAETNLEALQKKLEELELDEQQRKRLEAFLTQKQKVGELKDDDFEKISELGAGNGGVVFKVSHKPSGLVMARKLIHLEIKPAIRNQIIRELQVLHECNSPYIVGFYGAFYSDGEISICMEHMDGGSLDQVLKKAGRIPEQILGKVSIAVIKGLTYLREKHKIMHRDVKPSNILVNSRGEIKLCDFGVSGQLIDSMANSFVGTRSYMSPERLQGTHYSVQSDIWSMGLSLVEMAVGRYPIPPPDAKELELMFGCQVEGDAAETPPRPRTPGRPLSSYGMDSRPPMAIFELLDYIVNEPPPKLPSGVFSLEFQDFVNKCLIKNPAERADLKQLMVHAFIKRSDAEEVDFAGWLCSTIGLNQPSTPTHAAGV

[3] = biological target: T2, V600E mutant of an active, truncated C-terminal domain of BRAF (tBRAF, 416-766 aa) (Homo sapiens, UniProt P15056, V600E); assay: 14C-labeled acetoacetate binding assay
T2 construct: truncated C-terminal domain of BRAF (tBRAF, 416-766 aa)
T2 sequence (P15056 416-766 V600E): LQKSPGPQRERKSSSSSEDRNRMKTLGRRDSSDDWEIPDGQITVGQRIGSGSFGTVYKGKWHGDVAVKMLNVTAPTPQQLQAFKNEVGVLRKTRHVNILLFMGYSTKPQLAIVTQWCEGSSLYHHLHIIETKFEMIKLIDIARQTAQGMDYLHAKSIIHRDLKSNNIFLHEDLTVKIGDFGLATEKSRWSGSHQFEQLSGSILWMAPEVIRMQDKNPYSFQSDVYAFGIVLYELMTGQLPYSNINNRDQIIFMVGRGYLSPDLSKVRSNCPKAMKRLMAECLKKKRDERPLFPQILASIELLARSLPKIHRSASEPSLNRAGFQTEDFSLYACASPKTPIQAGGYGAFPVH
Description: (§4) A series of radiometric metabolite-protein interaction analyses were performed using ^14C labeled acetoacetate incubated with purified BRAF variants in the presence and absence of DHAA.

BRAF V600R = BRAF V600R (Homo sapiens, UniProt P15056, V600R); assay: 14C-labeled acetoacetate binding assay
Chain of BRAF V600R (P15056 whole entry V600R): as the sequence (P15056 whole entry V600E) above, with E600R counted along it
Description: (§5) BRAF wild type and mutant proteins were incubated with increasing concentrations of ^14C-labeled acetoacetate.
as §4

BRAF V600D = BRAF V600D (Homo sapiens, UniProt P15056, V600D); assay: 14C-labeled acetoacetate binding assay
Chain of BRAF V600D (P15056 whole entry V600D): as the sequence (P15056 whole entry V600E) above, with E600D counted along it
Description: as §5, §4

[4] = system: control V600A mutant or other clinically reported BRAF mutants including K507E, N581S, D594N, L597Q, K601E, and S616F; assay: 14C-labeled acetoacetate binding assay, other BRAF mutants
Description: as §5, §4

[5] = system: diverse BRAF V600E-expressing cells; assay: DHAA with or without acetoacetate treatment of cells; format: cell-based; conditions: DHAA plus acetoacetate treatment
BRAF V600R-MEK1 binding = BRAF V600R-MEK1 binding (Homo sapiens, UniProt P15056, V600R); assay: MEK1 binding to BRAF mutants; format: biochemical
Chain of BRAF V600R-MEK1 binding (P15056 whole entry V600R): as the sequence (P15056 whole entry V600E) above, with E600R counted along it
Chain of BRAF V600R-MEK1 binding (Q02750 whole entry partner): as the sequence (Q02750 whole entry partner, the tested form may be a part) above

BRAF V600E [6] = biological target: T1, BRAF V600E; assay: BRAF V600E kinase activity (Vmax and Km), MEK1 as substrate; format: biochemical; conditions: acetoacetate binding; MEK1 as substrate
Description: as §1

FLAG-tagged BRAF V600E = biological target: T3, FLAG-tagged BRAF V600E (Homo sapiens, UniProt P15056, V600E); assay: cellular thermal shift assay, lysates of transfected 293T cells; format: binding; conditions: 400 μM
T3 construct: FLAG; expressed in transfected cells; host or cells: 293T cells (lysates)
T3 sequence (P15056 whole entry V600E): as the sequence (P15056 whole entry V600E) above
Excerpt: as §3

[7] = system: NRAS Q61K-expressing HMCB cells; assay: HMCB xenograft in nude mice; format: in vivo; conditions: for BRAF-MEK1 binding in tumors / cell proliferation rates in tumors (Ki67 IHC staining) / phosphorylation of MEK1 and ERK1/2 (MEK-ERK activation) in tumors / xenograft tumor growth (growth rates, sizes, masses): single agent; for xenograft tumor growth (growth rates, sizes, masses): normal diet
[8] = format: physicochemical
Description: as §2

[9] = serum and tumor metabolite levels and body weight of xenograft mice; format: in vivo
[10] = system: BRAF V600E-expressing human melanoma A375 cells; assay: A375 xenograft in nude mice; format: in vivo; conditions: for BRAF V600E-MEK1 binding in tumors / cell proliferation rates in tumors (Ki67 IHC staining) / phosphorylation of MEK1 and ERK1/2 in tumors / xenograft tumor growth (growth rates, sizes, masses): single agent; for xenograft tumor growth (growth rates, sizes, masses): normal diet
[11] = system: other BRAF mutants-MEK1 binding; assay: MEK1 binding to BRAF mutants; format: biochemical
[12] = system: Me1-ST cells expressing BRAF V600E; assay: immortalized melanocyte treatment: proliferation, MEK-ERK activation, BRAF-MEK1 binding; format: cell-based; conditions: DHAA plus acetoacetate rescue treatment
BRAF V600E [13] = biological target: T1, BRAF V600E; assay: 14C-labeled acetoacetate binding assay (radiometric metabolite-protein interaction)
Description: as §5, §4

[14] = chronic injection of acetoacetate or 3HB to nude mice; format: in vivo; conditions: chronic injection for 4 weeks
[15] = system: BRAF V600E-expressing human melanoma A2058 cells; assay: A2058 xenograft in nude mice; format: in vivo
Description: Xenograft tumor growth and in nude mice inoculated with BRAF V600E-positive human melanoma A2058 fed with normal or high-fat diets followed by intraperitoneal injection with DHAA.

[16] = increasing concentrations of 14C-labeled acetoacetate
[17] = acetoacetate injection in mice treated with fluvastatin, niacin or fenofibrate
[18] = DHAA plus intraperitoneal acetoacetate

Chain of BRAF V600E-MEK1 binding (P15056 whole entry V600E): as above

In the case of CC(C)=O [acetone], the “promotion of association between purified BRAF V600E and MEK1” value (BRAF V600E-MEK1 binding) is reported as “did not”, the “BRAF V600E-MEK1 binding” value [1] is reported as “did not affect” and the cell proliferation rates [1] is reported as “did not affect”. For the same compound, the “phosphorylation levels of MEK1 or ERK1/2” value [1] was “did not affect” and the “binding in thermal melt shift assay” value (BRAF V600E [2]) was “did not bind”.

For CC(=O)CC(=O)O [acetoacetate], the “promotion of MEK1 binding to BRAF V600D with increased MEK1 phosphorylation” value (BRAF V600D-MEK1 binding) was “promoted MEK1 binding”, the “binding of 14C-labeled acetoacetate” value [3] was “specifically bound” and the “binding of 14C-labeled acetoacetate” value (BRAF V600R) was “bound”. For the same compound, the Kd (BRAF V600R; [16]) was ~113 µM, the “binding of 14C-labeled acetoacetate” value (BRAF V600D) was “bound” and the Kd (BRAF V600D; [16]) was ~93 µM. For the same compound, the “binding of 14C-labeled acetoacetate” value [4] was “but not to a negative control mutant V600A or to other clinically reported BRAF mutants”, the “reversal by acetoacetate of DHAA-decreased MEK-ERK activation” value [5] was “could not be reversed” and the “reversal by acetoacetate of DHAA-reduced cell proliferation” value [5] was “could not be reversed”. For the same compound, the “promotion of association between purified BRAF V600E and MEK1” value (BRAF V600E-MEK1 binding) was “promoted MEK1 binding”, the “promotion of MEK1 binding to BRAF V600R with increased MEK1 phosphorylation” value (BRAF V600R-MEK1 binding) was “promoted MEK1 binding” and the “Km of BRAF V600E” value (BRAF V600E [6]) was “slightly decreased Km”. The “Vmax of BRAF V600E” value (BRAF V600E [6]) was “increased Vmax”, the “binding in cellular thermal shift assay” value (FLAG-tagged BRAF V600E) was “bound only to BRAF V600E” and the “effect of acetoacetate injection on tumor growth potential” value ([7]; intraperitoneal acetoacetate, fenofibrate study) was “had no effect on tumor growth potential”. For the same compound, the “BRAF-MEK1 binding in tumors” value [7] was “did not affect”, the “cell proliferation rates in tumors (Ki67 IHC staining)” value (shortened to “cell proliferation rates in tumors”) [7] was “did not affect” and the “phosphorylation of MEK1 and ERK1/2 (MEK-ERK activation) in tumors” value [7] was “did not affect”. The “xenograft tumor growth (growth rates, sizes, masses)” value (from here on “xenograft tumor growth”) [7] was “had no effect on growth rates or masses of tumor xenografts”, the “stability of anion form relative to acid form” value [8] was “approximately 55 times” and the “serum levels of acetoacetate” value ([9]; acetoacetate injection in DHAA-treated A375 xenograft mice) was “increased serum levels of acetoacetate”. For the same compound, the “serum 3HB levels” value [9, 17] was “did not affect 3HB levels”, the serum acetoacetate levels [9, 17] was “rescued the decreased serum acetoacetate levels” and the “serum levels of 3HB (β-hydroxybutyrate)” value ([9]; effect of treatment) was “did not affect serum levels of 3HB”. The “serum levels of acetoacetate” value ([9]; effect of treatment) was “increased serum levels of acetoacetate”, the “reversal by acetoacetate injection of DHAA inhibition of BRAF V600E-MEK1 binding in tumors” value [10, 18] was “did not reverse” and the “reversal by acetoacetate injection of DHAA inhibition of MEK1 and ERK1/2 phosphorylation in tumors” value [10, 18] was “did not reverse”. For the same compound, the “reversal by acetoacetate injection of DHAA inhibition of cell proliferation rates (Ki67) in tumors” value [10, 18] was “did not reverse”, the “reversal by acetoacetate injection of fluvastatin- or niacin-attenuated tumor growth” value ([10]; intraperitoneal acetoacetate plus oral fluvastatin or niacin) was “could be reversed” and the “BRAF V600E-MEK1 binding in tumors” value [10] was “enhanced BRAF V600E-MEK1 association”. The “cell proliferation rates in tumors” value [10] was “enhanced cell proliferation rates”, the “phosphorylation of MEK1 and ERK1/2 in tumors” value [10] was “enhanced phosphorylation of MEK1 and ERK1/2” and the “xenograft tumor growth” value [10] was “increased growth rates and masses of xenograft tumors; also recorded: increased tumor sizes; also recorded: selectively promotes”. For the same compound, the “reversal by acetoacetate injection of hypolipidemic agents' inhibitory effects (MEK1/ERK1/2 phosphorylation, BRAF V600E-MEK1 association, Ki67)” value ([10]; tumors) was “effectively reversed”, the “promotion of MEK1 binding to other BRAF mutants” value [11] was “but not to other BRAF mutants” and the “reversal by acetoacetate of the inhibitory effect of DHAA on cell proliferation” value [12] was “did not reverse”. For the same compound, the Kd (BRAF V600E [13]; [16]) was ~92 µM, the “binding of 14C-labeled acetoacetate” value (BRAF V600E [13]; purified BRAF V600E) was “binds to purified BRAF V600E; also recorded: specifically bound” and the “acetoacetate or 3HB levels in urine” value [14] was “did not alter”. For the same compound, the serum acetoacetate levels [14] was “increased serum acetoacetate”, the “rescue by acetoacetate injection of fenofibrate-decreased tumor growth” value ([15]; intraperitoneal acetoacetate plus fenofibrate) was “effectively rescued the decreased tumor growth” and the “reversal by acetoacetate injection of hypolipidemic agents' inhibitory effects (MEK1/ERK1/2 phosphorylation, BRAF V600E-MEK1 association, Ki67)” value ([15]; tumors) was “effectively reversed”.

For C[C@@H](O)CC(=O)O [3HB, D-β-hydroxybutyrate], the “BRAF-MEK1 binding in tumors” value [7] was “did not affect”, the “cell proliferation rates in tumors” value [7] was “did not affect” and the “phosphorylation of MEK1 and ERK1/2 (MEK-ERK activation) in tumors” value [7] was “did not affect”. For the same compound, the “xenograft tumor growth” value [7] was “had no effect on growth rates or masses of tumor xenografts”, the “serum levels of 3HB (β-hydroxybutyrate)” value ([9]; effect of treatment) was “increased serum levels of β-hydroxybutyrate” and the “acetoacetate or 3HB levels in urine” value [14] was “did not alter”. For the same compound, the “serum 3HB levels” value [14] was “increased 3HB”.

For O=C(O)c1cccnc1 [niacin], the serum cholesterol levels ([9]; effect of treatment) was “marginally decreased serum cholesterol levels”, the “serum levels of acetoacetate” value ([9]; effect of treatment) was “reduced serum levels of acetoacetate; also recorded: decrease serum acetoacetate levels” and the “BRAF V600E-MEK1 binding in tumors” value [10] was “decreased BRAF V600E-MEK1 association”. For the same compound, the “cell proliferation rates in tumors” value [10] was “reduced cell proliferation rates”, the “phosphorylation of MEK1 and ERK1/2 in tumors” value [10] was “decreased phosphorylation of MEK1 and ERK1/2” and the “xenograft tumor growth” value [10] was “effectively attenuated tumor growth potential; also recorded: reduce BRAF V600E tumor growth”.

With [Cl-].[Li+] [lithium chloride] the “promotion of association between purified BRAF V600E and MEK1” value (BRAF V600E-MEK1 binding) was “did not”, the “BRAF V600E-MEK1 binding” value [1] was “did not affect” and the cell proliferation rates [1] was “did not affect”. The “phosphorylation levels of MEK1 or ERK1/2” value [1] was “did not affect”, the “binding in thermal melt shift assay” value (BRAF V600E [2]) was “did not bind” and the serum cholesterol levels ([9]; effect of treatment) was “nor did it affect”. For the same compound, the “serum levels of 3HB (β-hydroxybutyrate)” value ([9]; effect of treatment) was “nor did it affect”, the “BRAF V600E-MEK1 binding in tumors” value [10] was “nor did it affect” and the “cell proliferation rates in tumors” value [10] was “nor did it affect”. For the same compound, the “xenograft tumor growth” value [10] was “did not affect tumor growth potential”.
